Where a SMILES comes first, the peptide text is derived from it. [ ]: non-standard residue; d: D form. Nle = CCCC[C@H](N)C(=O)O
Assays:
ABCA1 = assay: Increase of the expression of ABCA1 in THP-1-derived macrophages (immunoblotting); format: cell-based, human; conditions: for intracellular expression of ABCA1 compared with control cells: THP-1 macrophages
Experimental: THP-1 cells (human leukemia cell, American Type Culture Collection) were cultured for 72 hours in a 10% FBS-RPMI1640 medium (Iwaki Glass Co., Ltd.), together with PMA (phorbol myristate acetate, Wako Pure Chemical Industries Ltd.) to obtain differentiated macrophages. The medium was replaced with 0.2% BSA-RPMI 1640 (Iwaki Glass Co., Ltd.) to which ALLN (50 μM, Sigma) was added, and examined for the time-course of intracellular ABCA1 expression according to the method illustrated herein below.
ALLN-treated cells and control cells cultivated in ALLN-free media were hypotonically disrupted in 5 mM Tris-HCl (pH8.5), and then centrifuged (650 g, for 5 minutes) to precipitate nuclear fractions. The supernatant was centrifuged at 105,000 g for 30 minutes to collect a total membrane fraction. The total membrane was dissolved in an aqueous solution containing 0.9M urea, 0.2% triton X-100 (Wako Pure Chemical Industries Ltd.), and 0.1% dithiothreitol (Wako Pure Chemical Industries Ltd.), followed by addition of 10% lithium dodecyl sulfate solution (Wako Pure Chemical Industries Ltd.) at a volume ratio of 1/4. The resultant was subjected to electrophoretic separation using 10% SDS-7% polyacrylamide gel (Wako Pure Chemical Industries Ltd.). The separated protein was fixed and transferred onto PVDF membrane (Bio-Rad). Each sample was then subjected to immunoblotting with rabbit anti-human ABCA1 antibody (self-made purification by an ordinary method) to quantitate expressed ABCA1 proteins. The obtained bands were read for density and size with Scion Image (image analysis software, Scion) to digitize the results.
In the same manner as in Assay Example 1, THP-1 cells were cultured in a medium to which leupeptin was added in place of ALLN, and compared with control cells non-treated with leupeptin.

THP-1 cells = assay: Acceleration of apoAI-dependent HDL formation (cholesterols and phospholipids transported into the medium); format: cell-based, human; conditions: apoAI & ALLN-added cells vs control group and apoAI-added group; FIG. 3
From the text: In the same manner as in Arakawa et al., J. Lipid Res., 41, 1952-1962 (2000), THP-1 cells were used for quantitative analysis of cholesterols and phospholipids transported into the medium on the basis of apoAI-dependent HDL formation. ALLN-added cells were compared with those free of ALLN addition.

## CC(=O)N[C@@H](CC(C)C)C(=O)N[C@@H](CC(C)C)C(=O)N[C@H](C=O)CCCNC(=N)N [leupeptin]
ABCA1; leupeptin in place of ALLN, FIG. 2 at 7 hours after addition
  intracellular expression of ABCA1 compared with control cells: remarkable increase in the intracellular expression of ABCA1
ABCA1; leupeptin, 24 hours after addition to the medium
  action of elevating the expression of ABCA1: found even 24 hours after addition

## CCCC[C@@H](C=O)NC(=O)[C@H](CC(C)C)NC(=O)[C@H](CC(C)C)NC(C)=O [ALLN, N-acetyl-leu-leu-norleucinal] (Ac-Leu-Leu-[Nle]-aldehyde)
ABCA1; ALLN 50 μM in medium
  intracellular expression of ABCA1 compared with control cells: remarkable intracellular expression of ABCA1
ABCA1; ALLN 50 μM, 24 hours after addition
  action of increasing the expression of ABCA1: found even 24 hours after addition
THP-1 cells
  amount of apoAI-dependently transported cholesterols: increase
  amount of apoAI-dependently transported phospholipids: increase

From patent US20050085408A1, “Drugs ameliorating hypo-hdl cholesterolemia” (priority 2001, published 2005)
